Structures are written as SMILES.

With `C#CCOc1cc(Cl)nc(Nc2ccccc2)n1`, the melting point lay in the range of 92 to 93 °C. For the molecule `CC(C)(C)OC(=O)NCCn1cc(COc2ccc(C3=NC(=Nc4[nH]c(-c5ccc(O)cc5)cc4-c4ccccc4)C(c4ccccc4)=C3)cc2)nn1`, the melting point fell in the range of 128 to 130 °C.

`CC1=NN=C(c2ccc([N+](=O)[O-])cc2)c2cc(Br)ccc2C1`: the melting point was in the range of 200 to 205 °C. Then `Cc1cccc(C)c1NC(=O)CCNCCNC(C)C`, with 69.5 °C. For `NC(=NO)c1c(C(F)(F)F)ccc(F)c1F`, the melting point fell in the range of 114 to 115 °C. Then `O=C(O)C(Sc1nc2ccccc2s1)c1ccccc1` (centres undefined), with 152 to 154 °C; and `CC(=O)C1=C(O)C(=C(C)Nc2ccccc2)C(=O)OC1=O`, with 184 to 186 °C. The molecule `O=C(O)c1ccc(-c2ccc(O)c(F)c2)cc1` yielded a melting point of 254 to 256 °C. Take `CCCc1ccc2nc(N)sc2c1`: the melting point lay within 120 to 122 °C. In the case of `COc1ccc(-c2cc(NC(=O)Nc3ccc(Cl)cc3)on2)cc1` it was 165 to 170 °C; in that of `COC(=O)c1sc2cc([N+](=O)[O-])ccc2c1N`, 169 to 170 °C.

For the molecule `O=C(O)C=CC12CC(c3ccccc31)c1ccccc12`, the melting point was 220 to 222 °C. For `COCC#CC1=CC(C)(C)Oc2c(OC)cc(Cc3cnc(N)nc3N)cc21`, the melting point fell in the range of 236 to 237 °C. Then `O=C1C2C3CCC(C4CC43)C2C(=O)N1c1cc(Cl)cc(Cl)c1` (centres undefined), with 145 to 153 °C. `COc1cc(C=O)ccc1OCc1nc(-c2cccnc2)oc1C` yielded a melting point of 164 to 165 °C.

`Cc1ccc(C(=O)c2c(N)cc(C(=O)O)cc2OCc2ccccc2)cc1` gave a melting point of 182 to 184 °C. In the case of `O=C(O)c1cccc2c1CCc1cc(O)ccc1S2` it was 210 to 211 °C; in that of `CN(C)CC1CCCCN1CCNC(=O)N1c2ccccc2NC(=O)c2ccccc21` (centres undefined), 152 to 154 °C; in that of `O=C(O)c1cncc(-c2ccc(Cl)c(C(=O)NCC34CC5CC(CC(C5)C3)C4)c2)c1`, 178 to 182 °C. For the molecule `CNC(=O)NC(CCSC)C(N)=O` (racemic), the melting point was in the range of 156 to 157 °C. Molecule `O=C(NCCO)/C(=C/c1ccc(OC(F)(F)F)cc1)NC(=O)c1ccc(OCCCC(F)(F)F)cc1` gave a melting point of 160 to 163 °C.

In turn, `CC1CCC(=NNc2ccccc2)c2ncc(C(N)=O)c(=O)n21` (centres undefined) gave a melting point of 246 to 247 °C. `CCOC(=O)c1ncc2[nH]c3c(Br)cc(Br)cc3c2c1COC` gave a melting point of 98 to 99 °C. `CCCCc1nc2cnccc2n1Cc1ccc(C(=O)O)cc1` showed a melting point of 210 °C. In the case of `Cn1c(=O)c(Oc2c(F)cccc2F)cc2cnc(S(C)(=O)=O)nc21` it was 215 to 216 °C.

Turning to `COc1cc(C)c2c(c1)-c1c([nH]c3ccccc13)C2`, the melting point turned out to be 208 °C. Then `C=C(C)c1ccc(C(F)(F)C(F)(F)c2ccccc2)cc1`, with 97 to 104 °C; and `CC(Cl)c1nc2ccccc2c(=O)o1` (centres undefined), with 90 °C; and `CC1(C)CCC(Cc2ccc(Cl)cc2)=CC1=O`, with 87 to 90 °C. `CCCOc1cc(C)c(Cl)c2c(=O)c3ccccc3sc12` gave a melting point of 116 to 118 °C. In turn, `C[Si](C)(C)C#CCCCn1ncc(C#N)c1N` came in with a melting point of 125 to 127 °C.

As for `COc1ccc(C2=NN(C3CCN(S(=O)(=O)c4cccc(C#N)c4)CC3)C(=O)C(C)(C)C2)cc1OC`, the melting point was in the range of 158 to 160 °C. Then `CCCCc1oc2ccccc2c1-c1ccc(-c2ccc(OCC(=O)O)cc2)cc1`, with 126 to 128 °C; and `NC(=O)c1cn2c(ccc3ccccc32)n1`, with 270 to 271 °C. In the case of `COc1cc(OC)cc(C2CCCCC2=CC(=O)O)c1` (centres undefined) it was 154 to 156 °C.

Molecule `Oc1ccc(-c2cn(-c3ccc(C(F)(F)F)cc3F)nn2)cc1` came in with a melting point of 215 to 216 °C. `CC(=O)c1cc2cc(Br)ccc2s1` displayed a melting point of 120 to 121 °C. In the case of `O=C(Nc1ccccc1)N1CC2(CN1)CNN(C(=O)Nc1ccccc1)C2`, the melting point was 227 °C.

The molecule `CC(C)C(=O)NC(=O)N1C(=O)Cc2cc(Cl)ccc21` registered a melting point of 139 to 141 °C. In the case of `CC(C(=O)Nc1ccc(-n2nc(C(F)(F)F)cc2C(F)(F)F)cc1)c1ccc(C(=O)c2cccs2)cc1` (centres undefined) it was less than 80 °C; in that of `CC(C)C(=O)N[C@H]1C[C@H](C(=O)O)Nc2cc(Cl)cc(Cl)c21` (relative stereo), 197 to 198 °C; in that of `Cc1c(-c2ccc(O)cc2)sc(C=O)c1-c1cccc(O)c1`, 208 to 210 °C. Then `CCC(C)(CC)c1nnc(NC(=S)c2c(OC)cccc2OC)s1`, with 202 to 204 °C. In the case of `CC1(C)Oc2ccc(S(=O)(=O)C(F)(F)F)cc2[C@@H](N2Cc3ccc([N+](=O)[O-])cc3C2=O)[C@@H]1O` (relative stereo), the melting point fell in the range of 264 to 266 °C. Consider `O[C@@H](CNCCOc1ccc2oc(-c3ccon3)cc2c1)COc1ccccc1`, for which the melting point is 107 to 110 °C. For the molecule `Cc1ccc(-c2[nH]c(C(F)(F)F)nc2-c2ccc(S(C)(=O)=O)cc2)cc1`, the melting point is 234 to 238 °C. `CON=C(C(=O)OC)c1csc(N)n1`: the melting point worked out at 165 °C. The molecule `CSc1ccc(CN(C)CCOc2ccc(NC(=O)c3cccc4c(=O)c5ccccc5[nH]c34)cc2)cc1` came in with a melting point of 150 °C. In turn, `CC(C)c1nn(-c2ncc(C(F)(F)F)cc2Cl)cc1CCCO` yielded a melting point of 66 to 67 °C. Then `CC(=O)SCCCc1ccc(C2OCC(C)(C)CO2)cc1`, with 44 °C; and `CCOC(=O)C1=C(N)OC(C)=C(C(=O)OC(C)C)C1c1cccc([N+](=O)[O-])c1` (centres undefined), with 135 °C. Consider `CC(C)(C)SC1CN(C(=O)OCc2ccccc2)CC1NS(=O)(=O)c1ccc(Oc2ccccc2)cc1` (centres undefined), for which the melting point was in the range of 125 to 126 °C.

With `C=CCN1CCc2cc(OC[C@H]3CO[C@](Cn4ccnc4)(c4ccc(Cl)cc4Cl)O3)ccc2C1` (racemic), the melting point is 94 to 95 °C. Then `CC(C)(C#N)c1ccc(C(=O)CCCCl)cc1`, with 79 to 80 °C; and `COc1cc(NC(=O)NS(=O)(=O)c2ccccc2C)nc(OC)n1`, with 174 to 175 °C; and `Cn1cc(C(=O)C(=O)Cl)c2ccccc21`, with 122 to 133 °C. The molecule `CNC1=CC=CC(OCCCN2CCC(c3noc4cc(F)ccc34)CC2)(C(C)=O)C1` (centres undefined) registered a melting point of 151 to 153 °C. In the case of `NCC#Cc1cnc2c(c1)N(Cc1cc(Cl)ccc1Cl)CCN2` it was 183 °C; in that of `CCOC(=O)c1ncn(Cc2c(F)cccc2F)c1C(=O)OCC`, 70 to 72 °C; in that of `CC(CC(C(=O)N(C)C)(c1ccccc1)c1ccccc1)N1CCC(NC(=O)c2ccccc2O)C(O)C1` (centres undefined), 154 °C.

As to `O=C=Nc1ccc2c(c1)C(=O)OC2=O`, the melting point was 80 to 82 °C. Molecule `CCOC(=O)CC1CCc2ccc(COc3ccc(C#N)cc3)cc2C1` (centres undefined) had a melting point of 51 to 52 °C. Then `O=c1[nH]c2ccc3c(c2[nH]c1=O)CCCN3`, with more than 285 °C. In the case of `COCCN1CCC(c2ccc(C(=O)NC3(C(=O)NCC#N)CCCCC3)cc2)CC1` it was 160 to 162 °C; in that of `CC(Cc1c[nH]c2ccccc12)(NCc1cc2ccccc2o1)C(=O)NCc1cccc(O)c1` (centres undefined), 60 to 69 °C. Molecule `COC(=O)c1cc(C)cc2c1OCc1ccccc1C2C(=O)Nc1c(C(C)C)cccc1C(C)C` (centres undefined) had a melting point of 136 to 138 °C. The molecule `Nc1nccc(-c2c[nH]c3nccc(-c4ccccc4)c23)n1` showed a melting point of more than 210 °C. In the case of `CC12CCC3c4ccc(O)cc4CCC3C1CC=C2c1cccnc1` (centres undefined) it was 256 to 258 °C; in that of `c1ccc(SC2(Sc3ccccc3)CCCn3cc(-c4ccccc4)nc32)cc1`, 129 to 131 °C. `COc1ccc(OC)c2c(Cl)c(C#N)cnc12` registered a melting point of 165 to 167 °C. In the case of `CNC(=O)c1ccc(C)c(-n2c(C)cc(OCc3ccccc3CNC(=O)Nc3cc(C(C)(C)C)nn3-c3ccc(Cl)c(O)c3)c(Cl)c2=O)c1` it was 201 to 203 °C. `COC1=NC(c2cccc([N+](=O)[O-])c2)C(C(=O)OC(C)C)=C(C)N1` (centres undefined): the melting point was 130 to 132 °C. Molecule `CCCCNC(=S)N1CCc2cc(S(=O)(=O)N3CC(c4ccccc4)NC3=O)ccc21` (centres undefined) gave a melting point of 186 to 188 °C. Take `CCOc1cc(Oc2cc(C)[nH]n2)ccc1[N+](=O)[O-]`: the melting point lay in the range of 123 to 124 °C. With `C[C@]12C[C@H](c3ccc(OCCCCCCl)cc3)[C@@H]3c4ccc(O)cc4CC[C@H]3[C@@H]1CC[C@@H]2O`, the melting point worked out at 165 °C. `CN(C)Cc1c(-c2ccccc2)oc2c(CO)cccc2c1=O` registered a melting point of 150 °C. `CCC(C)N(C)C(=O)c1cc(-c2ccc(C)c(C)c2)c2sccc2c1` (centres undefined) yielded a melting point of 120 °C. In turn, `CC(C)c1c(Cl)sc2[nH]c(=O)c(=O)[nH]c12` yielded a melting point of more than 250 °C. Take `Cc1c(N)noc1C(F)(F)F`: the melting point lay within 34.5 to 36 °C. `Cc1ccc(OCCCCCOc2ccc3ccc(=O)oc3c2)cn1` showed a melting point of 101 to 102 °C. For `Cc1c(-c2ccccc2)oc2c(S(=O)(=O)Cl)cccc2c1=O`, the melting point was 165 to 170 °C. Molecule `O=C1Nc2ccccc2C1C(=O)c1cccnc1` (centres undefined) showed a melting point of 169 to 170 °C. `C#Cc1cc2c(Nc3ccc4[nH]ccc4c3)ncnc2cc1OC` registered a melting point of 176 °C. Take `CC(C)c1cccc(C(C)C)c1NC(=O)[C@H](CCc1ccccc1)NC(=O)OC(C)(C)C`: the melting point was 193 to 197 °C.

Take `O=C(Nc1ccc(Cc2ccc(O)c(O)c2)cc1)C1CSc2ccccc2C1=O` (centres undefined): the melting point lay in the range of 216 to 218 °C. In the case of `CCN1CCNC(=O)C1c1ccc(Nc2nc(Br)cn(C)c2=O)cc1` (centres undefined), the melting point was 152 to 153 °C.

`COc1cc(Cl)cnc1OCC#Cc1ccc(Cl)nc1`: the melting point came to 94 °C. `CN(C)C=NS(=O)(=O)c1cc(CCNC(=O)C(F)(F)F)ccc1OCC(F)(F)F` came in with a melting point of 130 °C. `CN1CCC2(C)c3cc(O)cc(Br)c3N(C)C12` (centres undefined) showed a melting point of 175 to 177 °C.

As a reminder, the melting point is the temperature, or range, at which the solid turns liquid.

The values are drawn from a melting point compilation (Tetko et al.; mined from patent text by program, amines drawn as free bases though some values may be those of a salt).
